Experiments:
[1] = Therapeutic drug monitoring of plasma dalbavancin concentrations (Cmin, Cmax) by LC-MS/MS; format: in vivo, human (patients)
Description: This study involved a retrospective analysis of TDM that was routinely carried out by the ASST Fatebenefratelli Sacco University Hospital (Milan, Italy) from December 2021 to November 2023; the analysis included samples that were collected within our hospital and those received from other hospitals (our laboratory is a reference laboratory for the TDM of dalbavancin in Lombardy Region, Italy). This service also included the on-demand estimation of the next dalbavancin injection. This estimation required the collection of both the Cmin and the Cmax for dalbavancin. […] Plasma blood samples with dalbavancin were assessed by using ethylene diamine tetra-acetic acid (EDTA)-containing Vacutainers®. All samples were centrifuged at 3000× g, and the plasma was separated and stored at −20 °C. Dalbavancin quantification was performed through a validated LC-MS/MS method that was developed and validated according to the EMA guidelines. The analytical process consisted of a fast protein precipitation protocol of 50 µL of plasma with 400 µL of precipitation solution (methanol/acetonitrile 3/1), centrifugation at 10,000× g, 1:3 dilutions with water, and analysis. […] Waters, Milan, Italy). For quantification, analysis was performed in the ESI-positive mode by monitoring the transition (m/z = 909.45 > 340.2) for dalbavancin.

[2] = Log-linear regression models describing the time distribution of dalbavancin concentrations; conditions: for Days >4 mg/L / Days >8 mg/L: log-linear regression model, pooled patients
Method: Coupled with the Cmin values, these samples facilitated the development of log-linear regression models describing the time distribution of dalbavancin concentrations for each injection. By targeting the Cmin values for dalbavancin that were not lower than 4 or 8 mg/L, we were able to estimate the number of days needed between each injection to guarantee these targets.
We retrospectively analyzed data from adult patients who received at least 3 doses of dalbavancin for the treatment of osteoarticular and/or periprosthetic joint infections for whom TDM was performed as part of clinical practice. On the day of the scheduled injection, the Cmin for dalbavancin within a 1 h time window before the injection was considered for both Cmin- and Cmax-based TDM. Peak drug concentrations (30 to 60 min after the end of the infusion) were collected only in patients subjected to Cmax-based TDM.
Dalbavacin concentrations were considered both as a continuous variable (expressed as the mean ± standard deviation) and categorical variables, and data (expressed as a percentage) were clustered according to their frequency distribution within the therapeutic ranges proposed in the available literature (>4 or >8 mg/L). Inter-individual variability in the dalbavancin concentrations was calculated as the percentage of the coefficient of variation (CV%). Log-linear regressions were performed using the built-in statistical package in Microsoft Excel (Microsoft Office Software, Microsoft Company, Redmond, WA, USA). The goodness of the log-linear regression models developed by plotting logarithmic concentrations (Y) of dalbavancin with time (X) was quantified using the coefficient of correlation (r). Unpaired t-tests were used to compare the Cmin for dalbavancin, the number of drug injections, and the times of injections between Cmin- and Cmax-based TDM. Statistical significance was set at <0.05 (significant difference) and <0.01 (highly significant difference).

[3] = cited from earlier work

CN[C@H]1C(=O)N[C@@H]2Cc3ccc(cc3)Oc3cc4cc(c3O[C@@H]3O[C@H](C(=O)O)[C@@H](O)[C@H](O)[C@H]3NC(=O)CCCCCCCCC(C)C)Oc3ccc(cc3Cl)[C@@H](O)[C@@H]3NC(=O)[C@H](NC(=O)[C@@H]4NC(=O)[C@@H](NC2=O)c2cc(cc(O)c2Cl)Oc2cc1ccc2O)c1ccc(O)c(c1)-c1c(O[C@H]2O[C@H](CO)[C@@H](O)[C@H](O)[C@@H]2O)cc(O)cc1[C@@H](C(=O)NCCCN(C)C)NC3=O [dalbavancin]
Cmax of dalbavancin, range ([1]; 107 TDM assessments, plasma, 30 to 60 min after end of infusion, LC-MS/MS, range): 74.9 to 995.6 µg/mL | Dalbavancin Cmin CV% ([1]; Cmax-based TDM, 2nd injection): 44% | Dalbavancin Cmin CV% ([1]; Cmax-based TDM, 3rd injection): 46% | Dalbavancin Cmin CV% ([1]; Cmax-based TDM, 4th injection): 40% | Dalbavancin Cmin CV% ([1]; Cmax-based TDM, 5th injection): 21% | Dalbavancin Cmin CV% ([1]; Cmax-based TDM, 6th injection): 32% | Dalbavancin Cmin CV% ([1]; Cmax-based TDM, ≥6 injections): 32% | Dalbavancin Cmin CV% ([1]; Cmin-based TDM, 2nd injection): 45% | Dalbavancin Cmin CV% ([1]; Cmin-based TDM, 3rd injection): 57% | Dalbavancin Cmin CV% ([1]; Cmin-based TDM, 4th injection): 43% | Dalbavancin Cmin CV% ([1]; Cmin-based TDM, 5th injection): 56% | Dalbavancin Cmin CV% ([1]; Cmin-based TDM, 6th injection): 41% | Dalbavancin Cmin CV% ([1]; Cmin-based TDM, ≥6 injections): 37% | Cmin for dalbavancin, range ([1]; human, in vivo, iv): 4.1 to 70.5 µg/mL | Cmin for dalbavancin before the second injection ([1]; human, in vivo, iv, SD): 39.6 ± 35.4 µg/mL | Cmin for dalbavancin, mean ([1]; human, in vivo, iv, SD): 20.7 ± 14.0 µg/mL | Cmax ([1]; human, in vivo, SD): 310 ± 158 µg/mL | Days >4 mg/L ([2]; 2nd injection): 52 days | Days >8 mg/L ([2]; 2nd injection): 42 days | Days >4 mg/L ([2]; 3rd injection): 52 days | Days >8 mg/L ([2]; 3rd injection): 43 days | Days >4 mg/L ([2]; 4th injection): 59 days | Days >8 mg/L ([2]; 4th injection): 48 days | Days >4 mg/L ([2]; 5th injection): 56 days | Days >8 mg/L ([2]; 5th injection): 45 days | Days >4 mg/L ([2]; 6th injection): 53 days | Days >8 mg/L ([2]; 6th injection): 44 days | Days >4 mg/L ([2]; >6 injections): 52 days | Days >8 mg/L ([2]; >6 injections): 42 days | Days >4 mg/L ([2]; Overall): 54 days | Days >8 mg/L ([2]; Overall): 44 days | Days between injections needed to maintain Cmin >8 mg/L ([2]; estimated from pooled log-linear regression models, range over injections): 42 to 48 days | terminal half-life ([3]; ref [1],[2],[3],[4]): > 14 days | total volume of distribution ([3]; ref [2],[3]): ~16 L
